Experimental findings from patent publication US9283222B2 (priority 2006, dated 2016) are described below.

The target in the assay is Recombinant Human Poly(ADP-Ribose) Polymerase (PARP), PARP-1 (Homo sapiens (Human), UniProt P09874). Conditions: read-out: PARP-1 (Ki); Table 1; text calls the values EC50s.

The term Ki denotes a measure of affinity in units of concentration, obtained from inhibition or displacement.

The structures appear in SMILES notation.

Sequence of Recombinant Human Poly(ADP-Ribose) Polymerase (PARP), PARP-1 (P09874 whole entry): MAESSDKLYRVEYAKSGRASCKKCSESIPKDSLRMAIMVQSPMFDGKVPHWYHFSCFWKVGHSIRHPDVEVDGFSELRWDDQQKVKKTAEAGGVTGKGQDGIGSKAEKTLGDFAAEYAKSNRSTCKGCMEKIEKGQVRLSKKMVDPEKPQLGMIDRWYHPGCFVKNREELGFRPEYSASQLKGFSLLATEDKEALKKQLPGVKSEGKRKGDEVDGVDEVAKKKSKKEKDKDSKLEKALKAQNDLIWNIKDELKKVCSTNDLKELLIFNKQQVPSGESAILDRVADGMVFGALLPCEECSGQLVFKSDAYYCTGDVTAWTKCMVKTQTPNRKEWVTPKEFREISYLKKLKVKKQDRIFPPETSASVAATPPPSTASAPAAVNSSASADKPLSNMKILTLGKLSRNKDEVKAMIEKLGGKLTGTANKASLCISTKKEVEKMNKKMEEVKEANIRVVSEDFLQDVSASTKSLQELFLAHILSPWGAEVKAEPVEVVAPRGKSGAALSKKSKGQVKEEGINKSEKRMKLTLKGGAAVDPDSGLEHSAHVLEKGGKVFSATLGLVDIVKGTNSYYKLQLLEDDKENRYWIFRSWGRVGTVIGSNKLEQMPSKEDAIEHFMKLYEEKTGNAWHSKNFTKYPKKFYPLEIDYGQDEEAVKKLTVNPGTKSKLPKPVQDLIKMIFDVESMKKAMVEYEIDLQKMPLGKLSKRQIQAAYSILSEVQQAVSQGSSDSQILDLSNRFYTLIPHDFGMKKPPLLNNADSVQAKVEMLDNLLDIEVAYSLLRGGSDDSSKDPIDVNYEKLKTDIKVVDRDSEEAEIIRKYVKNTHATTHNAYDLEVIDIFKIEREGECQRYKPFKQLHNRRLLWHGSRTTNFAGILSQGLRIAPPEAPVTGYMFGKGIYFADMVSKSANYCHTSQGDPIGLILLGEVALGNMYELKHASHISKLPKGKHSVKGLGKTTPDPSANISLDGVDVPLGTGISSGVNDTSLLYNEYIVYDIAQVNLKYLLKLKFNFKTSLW

For the molecule `CCCc1ccc(C(=O)Nc2cccc(Cc3n[nH]c(=O)c4c3CCCC4)c2)cc1` [Example 185, N-(3-((4-oxo-3,4,5,6,7,8-hexahydrophthalazin-1-yl)methyl)phenyl)-4-propylbenzamide], the inhibition constant (Ki) was 250 nM. Under `COc1ccccc1CCNC(=O)c1cccc(Cc2n[nH]c(=O)c3c2CCCC3)c1` [Example 382, N-(2-(2-methoxyphenyl)ethyl)-3-((4-oxo-3,4,5,6,7,8-hexahydrophthalazin-1-yl)methyl)benzamide] stands 79 nM; under `CC(C)n1c(C(F)(F)F)nc2cc(C(=O)N3CCN(C(=O)c4cc(Cc5n[nH]c(=O)c6c5CCCC6)ccc4F)CC3)ccc21` [Example 725, 4-{4-fluoro-3-[(4-{[1-isopropyl-2-(trifluoromethyl)-1H-benzimidazol-5-yl]carbonyl}piperazin-1-yl)carbonyl]benzyl}-5,6,7,8-tetrahydrophthalazin-1(2H)-one], 5 nM; under `O=C(c1cc(Cc2n[nH]c(=O)c3c2NCCC3)ccc1F)N1CCN(C(=O)c2cccnc2Cl)CC1` [Example 658, 8-[3-({4-[(2-chloropyridin-3-yl)carbonyl]piperazin-1-yl}carbonyl)-4-fluorobenzyl]-2,3,4,6-tetrahydropyrido[2,3-d]pyridazin-5(1H)-one], 1 nM.

As for `CNC(=O)c1cc(Cc2n[nH]c(=O)c3c2CCCC3)ccn1` [Example 67, N-methyl-4-((4-oxo-3,4,5,6,7,8-hexahydrophthalazin-1-yl)methyl)pyridine-2-carboxamide], the inhibition constant Ki stood at 50 nM. The figure for `O=C1CCN1c1cc(Cc2n[nH]c(=O)c3cccnc23)ccc1F` [Example 449, 8-(4-fluoro-3-(2-oxoazetidin-1-yl)benzyl)pyrido(2,3-d)pyridazin-5(6H)-one] is 103 nM; for `COc1ccc(C(=O)N2CCN(C(=O)c3cc(Cc4n[nH]c(=O)c5c4CCCC5)ccc3F)CC2)cc1` [Example 622, 4-(4-fluoro-3-{[4-(4-methoxybenzoyl)piperazin-1-yl]carbonyl}benzyl)-5,6,7,8-tetrahydrophthalazin-1(2H)-one] it is 2.4 nM; for `COc1ccc(C(=O)CCC(=O)Nc2cc(Cc3n[nH]c(=O)c4c3CCCC4)ccc2F)cc1` [Example 289, N-(2-fluoro-5-((4-oxo-3,4,5,6,7,8-hexahydrophthalazin-1-yl)methyl)phenyl)-4-(4-methoxyphenyl)-4-oxobutanamide] it is 0.7 nM. The figure for `CC(=O)Nc1cccc(-c2cccc(C(C)Cc3n[nH]c(=O)c4c3CCCC4)c2)c1` (centres unmarked) [Example 284, N-(3′-(1-methyl-2-(4-oxo-3,4,5,6,7,8-hexahydrophthalazin-1-yl)ethyl)-1,1′-biphenyl-3-yl)acetamide] is 2210 nM; for `CC(C)n1c(C(F)(F)F)nc2cc(C(=O)N3CCN(C(=O)c4cc(Cc5n[nH]c(=O)c6c5NCCC6)ccc4F)CC3)ccc21` [Example 647] it is 1.7 nM. The figure for `CN1CCCN(C(=O)c2cccc(Cc3n[nH]c(=O)c4c3CCCC4)c2)CC1` [Example 447, 4-(3-((4-methyl-1,4-diazepan-1-yl)carbonyl)benzyl)-5,6,7,8-tetrahydrophthalazin-1(2H)-one] is 10 nM; for `O=C(Nc1cccc(Cc2n[nH]c(=O)c3c2CCCC3)c1)c1cccc2ccccc12` [Example 230, N-(3-((4-oxo-3,4,5,6,7,8-hexahydrophthalazin-1-yl)methyl)phenyl)-1-naphthamide] it is 96 nM; for `CC(C)(C)NC(=O)Nc1cc(Cc2n[nH]c(=O)c3c2CCCC3)ccc1F` [Example 542, N-(tert-butyl)-N′-{2-fluoro-5-[(4-oxo-3,4,5,6,7,8-hexahydrophthalazin-1-yl)methyl]phenyl}urea] it is 548 nM.

For `CN(C)CCC(=O)Nc1cccc(Cc2n[nH]c(=O)c3c2CCCC3)c1` [Example 221], the inhibition constant Ki turned out to be 1540 nM. Under `NC(=O)C1CCCN(C(=O)c2cc(Cc3n[nH]c(=O)c4c3CCCC4)ccc2F)C1` (centres unmarked) [Example 500, 1-{2-fluoro-5-[(4-oxo-3,4,5,6,7,8-hexahydrophthalazin-1-yl)methyl]benzoyl}piperidine-3-carboxamide] stands 3 nM; under `COC(=O)c1cccc(CCc2n[nH]c(=O)c3c2CCCC3)c1` [Example 265, methyl 3-(2-(4-oxo-3,4,5,6,7,8-hexahydrophthalazin-1-yl)ethyl)benzoate], 58 nM; under `COc1ccc(C(=O)C2CCN(C(=O)c3cc(Cc4n[nH]c(=O)c5c4NCCC5)ccc3F)CC2)cc1` [Example 610, 8-(4-fluoro-3-{[4-(4-methoxybenzoyl)piperidin-1-yl]carbonyl}benzyl)-2,3,4,6-tetrahydropyrido[2,3-d]pyridazin-5(1H)-one], 1.7 nM.

For the molecule `O=C(OCc1ccccc1)N1CCCN(C(=O)c2cc(Cc3n[nH]c(=O)c4c3CCCC4)ccc2F)CC1` [Example 544, benzyl 4-{2-fluoro-5-[(4-oxo-3,4,5,6,7,8-hexahydrophthalazin-1-yl)methyl]benzoyl}-1,4-diazepane-1-carboxylate], the inhibitory constant (Ki) worked out at 4 nM. In the case of `O=C(CN1CCCC1=O)Nc1cc(Cc2n[nH]c(=O)c3c2CCCC3)ccc1F` [Example 453, N-(2-fluoro-5-((4-oxo-3,4,5,6,7,8-hexahydrophthalazin-1-yl)methyl)phenyl)-2-(2-oxopyrrolidin-1-yl)acetamide], the Ki amounted to 14 nM. The figure for `CCC(=O)N1CCN(C(=O)c2cc(Cc3n[nH]c(=O)c4c3CCCC4)ccc2F)CC1` [Example 585, 4-{4-fluoro-3-[(4-propionylpiperazin-1-yl)carbonyl]benzyl}-5,6,7,8-tetrahydrophthalazin-1(2H)-one] is 1.3 nM. The figure for `O=C(c1ccccn1)N1CCCN(C(=O)c2cc(Cc3n[nH]c(=O)c4c3NCCC4)ccc2F)CC1` [Example 684, 8-(4-fluoro-3-{[4-(pyridin-2-ylcarbonyl)-1,4-diazepan-1-yl]carbonyl}benzyl)-2,3,4,6-tetrahydropyrido[2,3-d]pyridazin-5(1H)-one] is 2.8 nM; for `Cc1cccc(OCC(=O)Nc2cccc(Cc3n[nH]c(=O)c4c3CCCC4)c2)c1` [Example 148, 2-(3-methylphenoxy)-N-(3-((4-oxo-3,4,5,6,7,8-hexahydrophthalazin-1-yl)methyl)phenyl)acetamide] it is 74 nM. The figure for `O=C(c1ccncc1)N1CCN(C(=O)c2cc(Cc3n[nH]c(=O)c4c3NCCC4)ccc2F)CC1` [Example 660, 8-{4-fluoro-3-[(4-isonicotinoylpiperazin-1-yl)carbonyl]benzyl}-2,3,4,6-tetrahydropyrido[2,3-d]pyridazin-5(1H)-one] is 1.4 nM; for `O=C(NC1CCN(C(=O)c2cccnc2)CC1)c1cc(Cc2n[nH]c(=O)c3c2NCCC3)ccc1F` [Example 724, 2-fluoro-5-[(5-oxo-1,2,3,4,5,6-hexahydropyrido[2,3-d]pyridazin-8-yl)methyl]-N-[1-(pyridin-3-ylcarbonyl)piperidin-4-yl]benzamide] it is 7 nM. As to `CC1(C)CC(=O)N(c2cc(Cc3n[nH]c(=O)c4c3CCCC4)ccc2F)C1=O` [Example 299, 1-(2-fluoro-5-((4-oxo-3,4,5,6,7,8-hexahydrophthalazin-1-yl)methyl)phenyl)-3,3-dimethylpyrrolidine-2,5-dione], the inhibition constant Ki was 4 nM.

On to `O=C(NCCc1ccc(Oc2ccccc2)cc1)c1cccc(Cc2n[nH]c(=O)c3c2CCCC3)c1` [Example 396, 3-((4-oxo-3,4,5,6,7,8-hexahydrophthalazin-1-yl)methyl)-N-(2-(4-phenoxyphenyl)ethyl)benzamide], for which the Ki is 83 nM. Under `O=C(c1cc(Cc2n[nH]c(=O)c3c2CCCC3)ccc1F)N1CCN(c2ccccc2Cl)CC1` [Example 517, 4-(3-{[4-(2-chlorophenyl)piperazin-1-yl]carbonyl}-4-fluorobenzyl)-5,6,7,8-tetrahydrophthalazin-1(2H)-one] stands 5 nM; under `CC(=O)Nc1cccc(-c2cc(CCc3n[nH]c(=O)c4c3CCCC4)ccc2F)c1` [Example 274, N-(2′-fluoro-5′-(2-(4-oxo-3,4,5,6,7,8-hexahydrophthalazin-1-yl)ethyl)-1,1′-biphenyl-3-yl)acetamide], 222 nM; under `O=c1[nH]nc(CC2CNCCN2)c2c1CCCC2` (centres unmarked) [Example 261, 4-(piperazin-2-ylmethyl)-5,6,7,8-tetrahydrophthalazin-1(2H)-one], 556 nM. As to `O=C(c1cc(Cc2n[nH]c(=O)c3c2NCCC3)ccc1F)N1CCN(C(=O)C2CCCO2)CC1` (centres unmarked) [Example 569, 8-(4-fluoro-3-{[4-(tetrahydrofuran-2-ylcarbonyl)piperazin-1-yl]carbonyl}benzyl)-2,3,4,6-tetrahydropyrido[2,3-d]pyridazin-5(1H)-one], the inhibition constant Ki stood at 1.2 nM. Consider `CN1CCN(C(=O)c2cc(Cc3n[nH]c(=O)c4c3CCCC4)ccc2F)CC1=O` [Example 759, 4-{4-fluoro-3-[(4-methyl-3-oxopiperazin-1-yl)carbonyl]benzyl}-5,6,7,8-tetrahydrophthalazin-1(2H)-one], for which the inhibition constant (Ki) came out at 0.3 nM.

For `CN(C)C(=O)N1CCN(C(=O)c2cc(Cc3n[nH]c(=O)c4c3CCCC4)ccc2F)CC1` [Example 494, 4-{2-fluoro-5-[(4-oxo-3,4,5,6,7,8-hexahydrophthalazin-1-yl)methyl]benzoyl}-N,N-dimethylpiperazine-1-carboxamide], the Ki worked out at 0.9 nM.

On to `CC(C)c1ccccc1NC(=O)c1cccc(Cc2n[nH]c(=O)c3c2CCCC3)c1` [Example 333, N-(2-isopropylphenyl)-3-((4-oxo-3,4,5,6,7,8-hexahydrophthalazin-1-yl)methyl)benzamide], for which the inhibitory constant (Ki) worked out at 892 nM. Take `O=C(Nc1cccc(Cc2n[nH]c(=O)c3c2CCCC3)c1)c1cccc(I)c1` [Example 246, 3-iodo-N-(3-((4-oxo-3,4,5,6,7,8-hexahydrophthalazin-1-yl)methyl)phenyl)benzamide]: the Ki worked out at 52 nM.

On to `O=C(NC1CCC(O)CC1)c1cc(Cc2n[nH]c(=O)c3c2NCCC3)ccc1F` (centres unmarked) [Example 709, 2-fluoro-N-(4-hydroxycyclohexyl)-5-[(5-oxo-1,2,3,4,5,6-hexahydropyrido[2,3-d]pyridazin-8-yl)methyl]benzamide], for which the Ki is 53 nM.
